Ki data for 20 compounds are collected here from patent US20250213735A1, “NEUROPEPTIDE Y1 RECEPTOR (NPY1R) TARGETED THERAPEUTICS AND USES THEREOF” (Radionetics Oncology, Inc., priority 2023, published 2025).

In this test the target is hNPY1R (Homo sapiens (Human), UniProt P25929). Nature of the test: NPY1R binding assay (SK-N-MC membrane, [125I]-Peptide YY competition).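 Also: bound radioligand separated by filtration over GF/C filter plates and counted, Ki obtained by non-linear regression.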 The note with it: crude SK-N-MC membranes endogenously expressing NPY1R; [125I]-Peptide YY (human) 0.05 nM; 120 min at room temperature; read-out: hNPY1R binding Ki.
Chain of hNPY1R (P25929 whole entry): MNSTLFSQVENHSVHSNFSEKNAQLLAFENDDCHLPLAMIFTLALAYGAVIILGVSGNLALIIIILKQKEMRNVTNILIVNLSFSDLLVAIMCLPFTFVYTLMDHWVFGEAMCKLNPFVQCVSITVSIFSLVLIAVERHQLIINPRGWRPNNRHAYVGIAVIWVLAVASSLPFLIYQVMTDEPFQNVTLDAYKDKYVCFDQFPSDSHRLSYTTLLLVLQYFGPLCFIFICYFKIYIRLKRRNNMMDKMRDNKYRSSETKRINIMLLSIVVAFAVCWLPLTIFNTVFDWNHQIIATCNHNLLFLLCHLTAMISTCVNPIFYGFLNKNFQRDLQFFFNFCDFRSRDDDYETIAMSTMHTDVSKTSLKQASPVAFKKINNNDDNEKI
`N=C(N)NCCC[C@@H](NC(=O)C(c1ccccc1)N1CCC(C2CC2)CC1)C(=O)NCc1ccc(O)cc1` (stereo partly drawn) [compound 81, (2R)-2-(2-(4-cyclopropylpiperidin-1-yl)-2-phenylacetamido)-5-guanidino-N-(4-hydroxybenzyl)pentanamide]: the Ki fell in the range of 100 to 1000 nM.

In the case of `CCNC(=O)/N=C(/N)NCCC[C@@H](NC(=O)C(c1ccccc1)N1Cc2ccccc2C1)C(=O)NCc1c(F)cc(O)cc1F` (stereo partly drawn) [compound 67, (2R)—N-(2,6-difluoro-4-hydroxybenzyl)-5-((Z)-2-(ethylcarbamoyl)guanidino)-2-(2-(isoindolin-2-yl)-2-phenylacetamido)pentanamide], the Ki was below 10 nM.

Take `N=C(N)NCCC[C@@H](NC(=O)[C@H](c1ccccc1)N1Cc2ccccc2C1)C(=O)NCc1ccc(O)cc1` [compound 70, (R)-5-guanidino-N-(4-hydroxybenzyl)-2-((S)-2-(isoindolin-2-yl)-2-phenylacetamido)pentanamide]: the inhibition constant Ki fell in the range of 10 to 100 nM.

Turning to `CCC(=O)NCCNC(=O)/N=C(/N)NCCC[C@@H](NC(=O)[C@@H](c1cccc(NC(=O)CCCNc2c(NCCCCCCNC(=O)CN3CCN(CC(=O)O)CCN(CC(=O)O)CCN(CC(=O)O)CC3)c(=O)c2=O)c1)N1Cc2ccccc2C1)C(=O)NCc1c(F)cc(O)cc1F` (single isomer, unassigned) [31B], the Ki was below 10 nM.

As to `N=C(N)NCCC[C@@H](NC(=O)C(c1ccccc1)N1Cc2ccccc2C1)C(=O)NCc1ccc(O)cc1` (stereo partly drawn) [compound 68, (2R)-5-guanidino-N-(4-hydroxybenzyl)-2-(2-(isoindolin-2-yl)-2-phenylacetamido)pentanamide], the inhibition constant Ki was in the range of 10 to 100 nM.

For `N=C(N)NCCC[C@@H](NC(=O)[C@H](c1ccccc1)N1Cc2ccccc2C1=O)C(=O)NCc1ccc(O)cc1` [71A, (R)-5-guanidino-N-(4-hydroxybenzyl)-2-((S)-2-(1-oxoisoindolin-2-yl)-2-phenylacetamido)pentanamide], the Ki was above 1000 nM.

Regarding `CCC(=O)NCCNC(=O)/N=C(/N)NCCC[C@@H](NC(=O)[C@H](c1ccc(OCCCNC(=O)CCC(=O)NCCOCCNC(=O)CN2CCN(CC(=O)O)CCN(CC(=O)O)CCN(CC(=O)O)CC2)cc1)N1Cc2ccccc2C1)C(=O)NCc1c(F)cc(O)cc1F` [compound 43, 2,2′,2″-(10-(17-(4-((1S,4R,Z)-9-amino-4-((2,6-difluoro-4-hydroxybenzyl)carbamoyl)-1-(isoindolin-2-yl)-2,11,16-trioxo-3,8,10,12,15-pentaazaoctadec-9-en-1-yl)phenoxy)-2,10,13-trioxo-6-oxa-3,9,14-triazaheptadecyl)-1,4,7,10-tetraazacyclododecane-1,4,7-triyl)triacetic acid], the inhibition constant Ki was below 10 nM.

As to `N=C(N)NCCC[C@@H](NC(=O)[C@@H](c1ccccc1)N1Cc2ccccc2C1=O)C(=O)NCc1ccc(O)cc1` [71B, (R)-5-guanidino-N-(4-hydroxybenzyl)-2-((R)-2-(1-oxoisoindolin-2-yl)-2-phenylacetamido)pentanamide], the Ki is above 1000 nM.

Turning to `CCC(=O)NCCNC(=O)/N=C(/N)NCCC[C@@H](NC(=O)[C@H](c1ccc(OCCCNC(=O)CCC(=O)NCCNC(=O)CCC(C(=O)O)N2CCN(CC(=O)O)CCN(CC(=O)O)CCN(CC(=O)O)CC2)cc1)N1Cc2ccccc2C1)C(=O)NCc1c(F)cc(O)cc1F` (stereo partly drawn) [compound 49, 2,2′,2″-(10-(4-((2-(4-((3-(4-((1S,4R,Z)-9-amino-4-((2,6-difluoro-4-hydroxybenzyl)carbamoyl)-1-(isoindolin-2-yl)-2,11,16-trioxo-3,8,10,12,15-pentaazaoctadec-9-en-1-yl)phenoxy)propyl)amino)-4-oxobutanamido)ethyl)amino)-1-carboxy-4-oxobutyl)-1,4,7,10-tetraazacyclododecane-1,4,7-triyl)triacetic acid], the Ki was below 10 nM.

Consider `N=C(N)NCCC[C@@H](NC(=O)C(c1ccccc1)N1CCN(c2ccccc2)CC1)C(=O)NCc1ccc(O)cc1` (stereo partly drawn) [compound 76, (2R)-5-guanidino-N-(4-hydroxybenzyl)-2-(2-phenyl-2-(4-phenylpiperazin-1-yl)acetamido)pentanamide], for which the Ki is above 1000 nM.

Consider `CCC(=O)NCCNC(=O)/N=C(/N)NCCC[C@@H](NC(=O)[C@H](c1cccc(NCCCNC(=O)[C@@H](CO)NC(=O)CCNC(=O)CN2CCN(CC(=O)O)CCN(CC(=O)O)CCN(CC(=O)O)CC2)c1)N1Cc2ccccc2C1)C(=O)NCc1ccc(O)cc1` [compound 30, 2,2′,2″-(10-(2-((3-(((R)-1-((3-((3-((1S,4R,Z)-9-amino-4-((4-hydroxybenzyl)carbamoyl)-1-(isoindolin-2-yl)-2,11,16-trioxo-3,8,10,12,15-pentaazaoctadec-9-en-1-yl)phenyl)amino)propyl)amino)-3-hydroxy-1-oxopropan-2-yl)amino)-3-oxopropyl)amino)-2-oxoethyl)-1,4,7,10-tetraazacyclododecane-1,4,7-triyl)triacetic acid], for which the Ki is below 10 nM.

For `CC1(C)C2CN([C@H](C(=O)N[C@H](CCCNC(=N)N)C(=O)NCc3ccc(O)cc3)c3ccccc3)CC21` (stereo partly drawn) [88A, (2R)-2-((2S)-2-(6,6-dimethyl-3-azabicyclo[3.1.0]hexan-3-yl)-2-phenylacetamido)-5-guanidino-N-(4-hydroxybenzyl)pentanamide], the Ki was 100 to 1000 nM.

For the compound `CCNC(=O)/N=C(/N)NCCC[C@@H](NC(=O)C(c1ccccc1)N1CCC(C(C)(C)C)CC1)C(=O)NCc1c(F)cc(O)cc1F` (stereo partly drawn) [compound 92, (2R)-2-(2-(4-(tert-butyl)piperidin-1-yl)-2-phenylacetamido)-N-(2,6-difluoro-4-hydroxybenzyl)-5-((Z)-2-(ethylcarbamoyl)guanidino)pentanamide], the Ki was below 10 nM.

`CCNC(=O)/N=C(/N)NCCC[C@@H](NC(=O)[C@H](c1ccccc1)N1Cc2ccc(NCCCN)cc2C1)C(=O)NCc1c(F)cc(O)cc1F` [65A, (R)-2-((S)-2-(5-((3-aminopropyl)amino)isoindolin-2-yl)-2-phenylacetamido)-N-(2,6-difluoro-4-hydroxybenzyl)-5-((Z)-2-(ethylcarbamoyl)guanidino)pentanamide]: the Ki was below 10 nM.

Regarding `CCC(=O)NCCNC(=O)/N=C(/N)NCCC[C@@H](NC(=O)[C@H](c1ccc(OCCCNC(=O)CCNC(=O)CN2CCN(CC(=O)O)CCN(CC(=O)O)CCN(CC(=O)O)CC2)cc1)N1Cc2ccccc2C1)C(=O)NCc1c(F)cc(O)cc1F` [compound 47, 2,2′,2″-(10-(2-((3-((3-(4-((1S,4R,Z)-9-amino-4-((2,6-difluoro-4-hydroxybenzyl)carbamoyl)-1-(isoindolin-2-yl)-2,11,16-trioxo-3,8,10,12,15-pentaazaoctadec-9-en-1-yl)phenoxy)propyl)amino)-3-oxopropyl)amino)-2-oxoethyl)-1,4,7,10-tetraazacyclododecane-1,4,7-triyl)triacetic acid], the Ki was below 10 nM.

For the compound `CCC(=O)NCCNC(=O)/N=C(/N)NCCC[C@@H](NC(=O)[C@H](c1ccc(OCCCNC(=O)CCCCCNC(=O)CN2CCN(CC(=O)O)CCN(CC(=O)O)CCN(CC(=O)O)CC2)cc1)N1Cc2ccccc2C1)C(=O)NCc1ccc(O)cc1` [1A, 2,2′,2″-(10-(2-((6-((3-(4-((1S,4R,Z)-9-amino-4-((4-hydroxybenzyl)carbamoyl)-1-(isoindolin-2-yl)-2,11,16-trioxo-3,8,10,12,15-pentaazaoctadec-9-en-1-yl)phenoxy)propyl)amino)-6-oxohexyl)amino)-2-oxoethyl)-1,4,7,10-tetraazacyclododecane-1,4,7-triyl)triacetic acid], the Ki is below 10 nM.

As for `N=C(N)NCCC[C@@H](NC(=O)C(c1ccccc1)N1CCC(C(F)(F)F)CC1)C(=O)NCc1ccc(O)cc1` (stereo partly drawn) [compound 73, (2R)-5-guanidino-N-(4-hydroxybenzyl)-2-(2-phenyl-2-(4-(trifluoromethyl)piperidin-1-yl)acetamido)pentanamide], the Ki was 100 to 1000 nM.

`CCC(=O)NCCNC(=O)/N=C(/N)NCCC[C@@H](NC(=O)[C@H](c1ccc(OCCCN2CCN(C3CCN(C(=O)CCCCCNC(=O)CN4CCN(CC(=O)O)CCN(CC(=O)O)CCN(CC(=O)O)CC4)CC3)CC2)cc1)N1Cc2ccccc2C1)C(=O)NCc1c(F)cc(O)cc1F` [compound 35, 2,2′,2″-(10-(2-((6-(4-(4-(3-(4-((1S,4R,Z)-9-amino-4-((2,6-difluoro-4-hydroxybenzyl)carbamoyl)-1-(isoindolin-2-yl)-2,11,16-trioxo-3,8,10,12,15-pentaazaoctadec-9-en-1-yl)phenoxy)propyl)piperazin-1-yl)piperidin-1-yl)-6-oxohexyl)amino)-2-oxoethyl)-1,4,7,10-tetraazacyclododecane-1,4,7-triyl)triacetic acid]: the Ki is below 10 nM.

Take `CCC(=O)NCCNC(=O)/N=C(/N)NCCC[C@@H](NC(=O)[C@H](c1ccc(OCCCNc2c(NCCNC(=O)CN3CCN(CC(=O)O)CCN(CC(=O)O)CCN(CC(=O)O)CC3)c(=O)c2=O)cc1)N1Cc2ccccc2C1)C(=O)NCc1ccc(O)cc1` [compound 16, 2,2′,2″-(10-(2-((2-((2-((3-(4-((1S,4R,Z)-9-amino-4-((4-hydroxybenzyl)carbamoyl)-1-(isoindolin-2-yl)-2,11,16-trioxo-3,8,10,12,15-pentaazaoctadec-9-en-1-yl)phenoxy)propyl)amino)-3,4-dioxocyclobut-1-en-1-yl)amino)ethyl)amino)-2-oxoethyl)-1,4,7,10-tetraazacyclododecane-1,4,7-triyl)triacetic acid]: the inhibition constant Ki was below 10 nM.

Turning to `CCC(=O)NCCNC(=O)/N=C(/N)NCCC[C@@H](NC(=O)[C@H](c1ccc(OCCCNC(=O)[C@H]2CC[C@H](CNC(=O)CN3CCN(CC(=O)O)CCN(CC(=O)O)CCN(CC(=O)O)CC3)CC2)cc1)N1Cc2ccccc2C1)C(=O)NCc1ccc(O)cc1` [compound 18, 2,2′,2″-(10-(2-((((1S,4r)-4-((3-(4-((1S,4R,Z)-9-amino-4-((4-hydroxybenzyl)carbamoyl)-1-(isoindolin-2-yl)-2,11,16-trioxo-3,8,10,12,15-pentaazaoctadec-9-en-1-yl)phenoxy)propyl)carbamoyl)cyclohexyl)methyl)amino)-2-oxoethyl)-1,4,7,10-tetraazacyclododecane-1,4,7-triyl)triacetic acid], the Ki is below 10 nM.

As a reminder, the Ki is the equilibrium dissociation constant of an inhibitor or competing ligand from its target.
